The values that follow are results of earlier work, collected in patent publication US9062031B2, “Method of preparing polymorphic pure form A of bazedoxifene acetate” (SANDOZ AG, priority 2010, dated 2015).

SMILES strings stand for the structures.

For data set [1] the following is noted: aqueous and organic solvent systems.
For data set [2] the following is noted: solvent or solvent mixture, for example ethylacetate and ethanol.

Turning to `Cc1c(-c2ccc(O)cc2)n(Cc2ccc(OCCN3CCCCCC3)cc2)c2ccc(O)cc12` [Bazedoxifene x acetate form A, 1-[[4-[2-(Hexahydro-1H-azepin-1-Dethoxy]phenyl]methyl]-2-(4-hydroxyphenyl)-3-methyl-1H-indol-5-ol monoacetate], in data set [1], the “Solubility compared with form B” value was “higher solubility than form B”. Also, the “Conversion to form B upon contact with solvent” value in data set [2] was “can easily convert to form B”.
